# Data: PMC11243320, “Tailoring Fibroblast-Activation Protein Targeting for Theranostics: A Comparative Preclinical Evaluation of the ^68Ga- and ^177Lu-Labeled Monomeric and Dimeric Fibroblast-Activation Protein Inhibitors DOTA.SA.FAPi and DOTAGA.(SA.FAPi)2” (Molecules, 2024)
# Tested on: PC3 tumor-bearing mice
# Test: Ex vivo biodistribution of 177Lu-labeled radiotracers in PC3 xenografts
# Settings: for Biodistribution Blood / Biodistribution Bone / Biodistribution Heart / Biodistribution Intestine / Biodistribution Kidney / Biodistribution Liver / Biodistribution Lung / Biodistribution Muscle / Biodistribution PC3-Tumor / Biodistribution Pancreas / Biodistribution Spleen / Biodistribution Stomach / Tumor/Blood ratio / Tumor/Liver ratio / Tumor/Muscle ratio / Tumor/Pancreas ratio: PC3 xenografts
# Procedure: U87MG and PC3 tumor-bearing mice: Female athymic BALB/c (6 weeks/16–20 g) and male athymic BALB/c nude mice (6 weeks/20–25 g) were implanted with U87MG or PC3 cells (5 × 10^6/100 µL PBS) into their right shoulder, respectively. The animals were used for biodistribution and PET/SPECT/CT imaging studies (Animal License No: BE98/2021).
# Ten pmol (0.06–0.08 MBq) of the radiotracers in 100 µL of NaCl 0.9% were injected intravenously into the tail vein of PC3 tumor-bearing mice. Biodistribution studies were conducted at 1, 4, 24, and 48 h after the injection of [^177Lu]Lu-DOTA.SA.FAPi and at 4, 24, 48, 72, and 96 h after the injection of [^177Lu]Lu-DOTAGA.(SA.FAPi)2 (Supplemental Data). […]
# was counted in a γ-counter. Biodistribution data are given as the percent of injected activity per gram of tissue (% IA/g) and as means ± SD (n = 4). […]
# [177Lu]Lu-DOTA.SA.FAPi and [177Lu]Lu-DOTAGA.(SA.FAPi)2
# Ten pmol (0.06-0.08 MBq) of [177Lu]Lu-monomer and [177Lu]Lu-dimer in 100 µL of NaCl 0.9% were injected intravenously into the tail vein of PC3 tumor-bearing mice. The PC3 tumor-bearing mice were used between the 15th and 17th day after the xenograft implantation and its size was 281 ± 75 mm3. Animals were terminally anesthetized by intraperitoneal injection of an overdose of pentobarbital natrium (150 mg/kg; Streuli Pharma SA, Uznach, Switzerland) 1, 4, 24 and 48 h after the injection of [177Lu]Lu-DOTA.SA.FAPi and at 4, 24, 48, 72 and 96 h after the injection of [177Lu]Lu-DOTAGA.(SA.FAPi)2. The organs of interest were dissected and weighed, and the radioactivity in the tissue samples was counted in a γ-counter. The biodistribution data are given as the percent of injected activity per gram of tissue (% IA/g) and as means ± SD (n = 4). […]
# 0.25mm. The reconstructed data were corrected for Lutetium-177 decay, normalized, and filtered using a Gaussian 3D algorithm with a 2 mm isotropic kernel and generated using PMOD software. […]
# The color scale of […]
# the SPECT images was set as 0 to 13% IA/mL allowing for qualitative comparisons among the images.
structure (smiles),measurement,setting,value
N#C[C@@H]1CC(F)(F)CN1C(=O)CNC(=O)c1ccnc2ccc(OCCCCNc3c(NCCNC(=O)CN4CCN(CC(=O)[O-])CCN(CC(=O)[O-])CCN(CC(=O)[O-])CC4)c(=O)c3=O)cc12.[177Lu+3] [[^177Lu]Lu-DOTA.SA.FAPi],PC3 tumor uptake,"PC3 tumor-bearing mice, 4 h p.i.",8.9 ± 0.2 %I.A./g
same,Biodistribution Blood,1 h,9.1 ± 1.8 % IA/g
same,Biodistribution Bone,1 h,4.0 ± 0.5 % IA/g
same,Biodistribution Heart,1 h,3.1 ± 0.7 % IA/g
same,Biodistribution Intestine,1 h,3.2 ± 0.4 % IA/g
same,Biodistribution Kidney,1 h,4.3 ± 0.5 % IA/g
same,Biodistribution Liver,1 h,3.8 ± 0.2 % IA/g
same,Biodistribution Lung,1 h,4.3 ± 0.6 % IA/g
same,Biodistribution Muscle,1 h,3.7 ± 1.0 % IA/g
same,Biodistribution PC3-Tumor,1 h,9.6 ± 0.9 % IA/g
same,Biodistribution Pancreas,1 h,12 ± 1.1 % IA/g
same,Biodistribution Spleen,1 h,3.0 ± 0.1 % IA/g
same,Biodistribution Stomach,1 h,2.5 ± 0.3 % IA/g
same,Tumor/Blood ratio,1 h,1.1
same,Tumor/Liver ratio,1 h,2.2 ± 0.2
same,Tumor/Muscle ratio,1 h,2.8 ± 1.0
same,Tumor/Pancreas ratio,1 h,0.8 ± 0.1
same,Biodistribution Blood,4 h,3.1 ± 0.2 % IA/g
same,Biodistribution Bone,4 h,4.2 ± 0.6 % IA/g
same,Biodistribution Heart,4 h,1.5 ± 0.3 % IA/g
same,Biodistribution Intestine,4 h,1.8 ± 0.3 % IA/g
same,Biodistribution Kidney,4 h,2.6 ± 0.03 % IA/g
same,Biodistribution Liver,4 h,3.0 ± 0.1 % IA/g
same,Biodistribution Lung,4 h,1.7 ± 0.07 % IA/g
same,Biodistribution Muscle,4 h,2.3 ± 0.1 % IA/g
same,Biodistribution PC3-Tumor,4 h,8.9 ± 0.2 % IA/g
same,Biodistribution Pancreas,4 h,5.3 ± 0.4 % IA/g
same,Biodistribution Spleen,4 h,1.7 ± 0.1 % IA/g
same,Biodistribution Stomach,4 h,1.7 ± 0.5 % IA/g
same,Tumor/Blood ratio,4 h,2.9 ± 0.2
same,Tumor/Liver ratio,4 h,3.0 ± 0.1
same,Tumor/Muscle ratio,4 h,3.9 ± 0.1
same,Tumor/Pancreas ratio,4 h,1.7 ± 0.2
same,Biodistribution Blood,24 h,0.2 ± 0.09 % IA/g
same,Biodistribution Bone,24 h,0.7 ± 0.2 % IA/g
same,Biodistribution Heart,24 h,0.1 ± 0.04 % IA/g
same,Biodistribution Intestine,24 h,0.2 ± 0.02 % IA/g
same,Biodistribution Kidney,24 h,0.6 ± 0.06 % IA/g
same,Biodistribution Liver,24 h,1.9 ± 0.3 % IA/g
same,Biodistribution Lung,24 h,0.2 ± 0.03 % IA/g
same,Biodistribution Muscle,24 h,0.3 ± 0.04 % IA/g
same,Biodistribution PC3-Tumor,24 h,1.8 ± 0.1 % IA/g
same,Biodistribution Pancreas,24 h,0.3 ± 0.1 % IA/g
same,Biodistribution Spleen,24 h,0.2 ± 0.03 % IA/g
same,Biodistribution Stomach,24 h,0.1 ± 0.02 % IA/g
same,Biodistribution Blood,48 h,0.01 ± 0.0 % IA/g
same,Biodistribution Bone,48 h,0.1 ± 0.01 % IA/g
same,Biodistribution Heart,48 h,0.03 ± 0.02 % IA/g
same,Biodistribution Intestine,48 h,0.04 ± 0.0 % IA/g
same,Biodistribution Kidney,48 h,0.12 ± 0.07 % IA/g
same,Biodistribution Liver,48 h,1.1 ± 0.1 % IA/g
same,Biodistribution Lung,48 h,0.05 ± 0.04 % IA/g
same,Biodistribution Muscle,48 h,0.05 ± 0.07 % IA/g
same,Biodistribution PC3-Tumor,48 h,1.0 ± 0.1 % IA/g
same,Biodistribution Pancreas,48 h,0.06 ± 0.01 % IA/g
same,Biodistribution Spleen,48 h,0.1 ± 0.06 % IA/g
same,Biodistribution Stomach,48 h,0.05 ± 0.02 % IA/g
